Measured values published in article PMC11206766, “QbD-Based Development and Evaluation of Pazopanib Hydrochloride Extrudates Prepared by Hot-Melt Extrusion Technique: In Vitro and In Vivo Evaluation” (Pharmaceutics, 2024).

Assays:
[1] = Oral pharmacokinetic / bioavailability study in rabbits; assay type: in vivo, New Zealand white rabbits; details: rabbit, equivalent to 200 mg pazopanib
Method: A bioavailability study was carried out to assess the drug absorption and pharmacokinetic parameters of different prepared formulations. A suitable animal was selected, and in vivo studies were performed in accordance with the ethical guidelines for animal care and use committee.
New Zealand white rabbits (Species and strain: […]) (5–6 months older, 2.0 ± 0.2 kg, 34–50 cm without tail) were utilized in this study. Animals were maintained at standard environmental conditions of temperature 24 ± 2 °C, humidity (55 ± 5%), under 12:12 h light (08:00–20:00 h)/dark cycle. Animals had free access to rodent chow and tap water ad libitum. Approval for animal studies was gained by the Institutional Animal Ethics Committee (Protocol no. IAEC; 1888/PO/Re/S/16/ CPCSEA/2022/01), constituted for the purpose of control and supervision of experimental animals and agreed with the globally acknowledged Principles for Laboratory Animal Use and Care as indicated by the National Institutes of Health Guide (NIH Publication No. 85–23, revised 1985). Animals were naive to drug treatments and experimentation, at the beginning of all studies. All tests were conducted at BM College of Pharmaceutical Education and Research (BMCPER), Indore, M.P. between 09:00 and 18:00 h.
Animals (n = 3) were settled into three different groups. First group (control) received Pazopanib drug (control), second group received the marketed pazopanib hydrochloride immediate release tablet (Votrient Tablets, 200 mg), while third group received drug formulations (equivalent to 200 mg of Pazopanib) prepared using HME technique, respectively. Dosage forms were administered orally via gastric intubation. Animals were fasted for 12 h with free access to water prior to drug administration. Rabbits were held in rabbit restrainers during blood sampling. Blood samples were collected in heparinized tubes from ear veins at predetermined time points (0, 0.5, 1, 2, 3, 4, 6, 8, 12, and 24 h) after oral administration. Plasma samples were obtained following centrifugation of blood at 3200× g for 5 min at 2–8 °C and kept frozen at −70 °C until analysis.
Pazopanib plasma concentration was plotted against time to obtain the concentration–time profiles, which were used to determine the peak blood concentration (Cmax) and time to achieve the peak concentration (Tmax). Non-compartmental pharmacokinetic analysis was conducted to calculate the area under the curve from 0 to 24 h [(AUC)0-24). The values of Cmax and Tmax for the test preparation were obtained by actual observations. All data were presented as mean ± standard deviation. In order to determine the area under the curve from 0 to 24 h, a non-compartmental PK study was performed using Win-Nonlin PK/PD software (version 8.1). Comparative blood plasma concentration (µg/mL) at different time points for Pazopanib drug and its formulation are depicted in below Figure 24.

[2] = cited from earlier work
[3] = oral via gastric intubation, fasted, plasma

- Cmax [1, 3]: 44700 ng/mL
- Tmax [1, 3]: 2 h
- T lag ([1]; oral): 0 h
- AUC Last ([1]; oral, 0 to 24 h, non-compartmental): 308.675 µg·h/mL
- C Last ([1]; oral, last sampling 24 h): 7.6 µg/mL
Compound: Cc1ccc(Nc2nccc(N(C)c3ccc4c(C)n(C)nc4c3)n2)cc1S(N)(=O)=O.Cl [PZB-Drug/API, Pazopanib Hydrochloride]
- BCS class [2]: BCS class II
- log P [2]: 3.55
- pKa [2]: 2.5
